Test results as given in US12139481B2, “Compositions comprising macrocycle derivatives incorporating bridged macrocycles and methods of producing and using same” (Southwestern Oklahoma State University, priority 2015, dated 2024).

Assays:
[1] = system: Plasmodium falciparum D6 clone (Sierra Leon, chloroquine-sensitive); test: In vitro antimalarial assay, chloroquine-sensitive D6 clone; format: cell-based; conditions: D6 clone; for IC50: converted with molecular weight, read-out: P. falciparum D6 IC50; for X more potent than chloroquine: molar IC50 ratio versus chloroquine
Method in brief: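 Parasites grown in type A human RBCs; assay run on infected cell suspension at 2% parasitemia and 2% hematocrit, in duplicate at several concentrations. IC50 taken from dose curves, per the Makler method, with DMSO as vehicle; Vero cytotoxicity run in parallel to derive a selectivity index.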

C. krusei ATCC 6258 = test: Antifungal broth dilution assay against C. krusei (modified CLSI); format: cell-based, Candida krusei; conditions: for X more potent than Amphotericin B: C. krusei, ratio of molar IC50 to amphotericin B; for C. krusei IC50 / IC50: in vitro; for IC50: read-out: C. krusei IC50 (mol/L)
Method in brief: (§1)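 Modified CLSI broth microdilution with OD monitoring before and after incubation at 35 °C: Candida in RPMI 1640/MOPS pH 6.0, 1.5×10^3 CFU/ml, 46-50 h; Staphylococcus in cation-adjusted Mueller-Hinton pH 7.3, 5.0×10^5 CFU/ml, 16-20 h. IC50 from curve fit; MIC is the lowest concentration with no growth; MFC/MBC from subculture.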

[2] = system: methicillin-resistant S. aureus ATCC 33591 (MRS); test: Antibacterial broth dilution assay against MRSA (modified CLSI); format: cell-based, Staphylococcus aureus; conditions: for MRSa IC50 / IC50: in vitro; for IC50: converted with molecular weight; for X more potent than ciprofloxacen: molar IC50 ratio versus ciprofloxacen
Method in brief: as §1

[3] = system: Staphylococcus aureus ATCC 29213; test: Antibacterial broth dilution assay against S. aureus (modified CLSI); format: cell-based; conditions: for S. aureus IC50 / IC50: in vitro; for IC50: converted with molecular weight; for X more potent than ciprofloxacen: molar IC50 ratio versus ciprofloxacen
Method in brief: as §1

[4] = system: S. mansoni newly transformed schistosomula (NTS); test: In vitro testing on Schistosoma mansoni newly transformed schistosomula (NTS), viability score; format: cell-based; conditions: NTS S. mansoni, 33 μM, 72 h
Method in brief: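 Mechanically transformed S. mansoni (Liberian strain) NTS, cultured overnight, exposed at 100 per well to compound (from 10 mM DMSO stock; ≤1% DMSO controls) at 37 °C, 5% CO2 for 72 h. Viability scored microscopically from 3 (normal activity, intact tegument) to 0 (dead, granulated).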

Row | SMILES | P. falciparum D6 IC50 [1] [µg/mL] | IC50 [1] [µM] | X more potent than chloroquine [1] | X more potent than Amphotericin B (C. krusei ATCC 6258) | C. krusei IC50 (C. krusei ATCC 6258) [µg/mL] | IC50 (C. krusei ATCC 6258) [µM] | MRSa IC50 [2] [µg/mL] | IC50 [2] [µM] | X more potent than ciprofloxacen [2] | S. aureus IC50 [3] [µg/mL] | IC50 [3] [µM] | X more potent than ciprofloxacen [3] | IC50 ([2]; HCl salt) [µM] | IC50 ([3]; HCl salt) [µM] | Effect at 72 h (%) [4] [%]
1 | [Cl][Mn-2]([Cl])([Cl])[Cl].[Mn+2].c1ccc(CN2CCCN3CCCN(CCCN(Cc4ccccc4)CC3)CC2)cc1 [BME08, [Mn(Bn2PBCyclam)][MnCl4]] | 0.0967 | 0.144 | 0.25 | 0.19 | 5.270 | 7.84 | 0.800 | 1.19 | 0.18 | 0.800 | 1.19 | 0.23 |  |  | 
2 | CN1CCCN2CCN(CCCN(Cc3cccc(CN4CCCN5CCN(C)CCCN(CC5)CC4)c3)CC2)CC1.Cl.Cl.Cl.Cl.Cl.Cl.Cl.Cl [TJS04, m-CB-cyclams HCl salt] | 0.7450 | 0.852 | 0.04 |  |  |  | 7.050 |  | 0.03 | 9.280 |  | 0.03 | 7.24 | 9.53 | 24.32
3 | c1ccc(CN2CCN3CCCN(CC2)CCN(Cc2ccccc2)CC3)cc1 [AW009, Bn2PBCyclen] | 1.0770 | 2.74 | 0.01 | 0.10 | 6.170 | 15.7 | 1.050 | 2.68 | 0.08 | 2.010 | 5.12 | 0.05 |  |  | 
4 | c1cc(CN2CCCN3CCCN(CCCNCC3)CC2)ccc1CN1CCCN2CCCN(CCCNCC2)CC1 [SLK10, p-H2PBCyclams] | 0.8657 | 1.49 | 0.02 |  |  |  | 2.500 | 4.29 | 0.05 | 1.410 | 2.42 | 0.11 |  |  | 
5 | CC(=O)[O-].F[P-](F)(F)(F)(F)F.[Ni+2].c1ccc(CN2CCCN3CCCN(CCCN(Cc4ccccc4)CC3)CC2)cc1 [DJD22, [Ni(Bn2PBCyclam)(OAc)]PF6] | 0.7074 | 1.03 | 0.04 | 0.19 | 5.250 | 7.68 | 4.620 | 6.76 | 0.03 | 4.630 | 6.78 | 0.04 |  |  | 
